In PMC8945122 (ACS Omega, 2022):
“Also recorded” adds a separate entry of the source.

Tests used:
[1] = biological target: soluble T cell receptor P14; assay: SPR
endogenous CD8^+ T cells = settings: mouse, in vivo; cited from earlier work
[2] = system: H-2D^b/peptide complexes (pMHC); design: species or system murine; settings: for melting temperature (Tm): pH 7.4
H-2D^b = H-2D^b (Mus musculus, UniProt P01899); design: species or system murine
TCR P14 = format: binding

H-2D^b, sequence (P01899 whole entry, looked up): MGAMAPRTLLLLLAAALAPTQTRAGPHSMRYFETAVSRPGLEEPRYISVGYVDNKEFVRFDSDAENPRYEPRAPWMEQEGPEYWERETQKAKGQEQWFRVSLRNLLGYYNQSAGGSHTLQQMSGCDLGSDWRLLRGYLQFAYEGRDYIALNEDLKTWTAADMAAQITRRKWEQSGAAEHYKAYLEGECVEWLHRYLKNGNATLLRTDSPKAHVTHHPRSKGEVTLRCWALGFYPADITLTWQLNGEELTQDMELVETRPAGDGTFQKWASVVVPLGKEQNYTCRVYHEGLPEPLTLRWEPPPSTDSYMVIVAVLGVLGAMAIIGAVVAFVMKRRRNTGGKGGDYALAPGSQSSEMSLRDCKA

Substance: H-2D^b/gp33 (from UniProt P01887) (peptide-MHC)
- Kd [1]: 6.3 µM

Substance: KAPFNFATM [V3P_Y4F]
- recognition of Y4F-presenting infected cells by endogenous CD8^+ T cells (endogenous CD8^+ T cells): efficiently restores recognition of infected cells presenting Y4F by endogenous CD8^+ T cells

Substance: KAPYNFATM [V3P]
- melting temperature (Tm) [2]: 66.0 °C

Substance: KAPYNfATM [V3P_F6f]
- thermal stability of pMHC (in words) [2]: slight decrease in stability
- melting temperature (Tm) [2]: 64.0 °C
- conformation of p6f / p4Y side chains and H155 (H-2D^b): prevents the H-2D^b residue H155 to rotate counter clock wise and to assume a TCR-bound-like conformation
- distances H-2D^b W73:NH–p6:CO and H-2D^b Y156:OH–p6:NH (H-2D^b): both distances increase in comparison to the corresponding structures with the L-amino acid
- pMHC complex formation (H-2D^b): does not compromise complex formation
- binding by TCR P14 (in words) (TCR P14): reduced P14 affinity; also recorded: significantly reduced binding by the H-2D^b/gp33-specific TCR P14

Substance: KAVYNFATM [gp33, reference compound]
- melting temperature (Tm) [2]: 63.5 °C

Substance: KAVYNfATM [F6f]
- thermal stability of pMHC (in words) [2]: slight decrease in stability
- melting temperature (Tm) [2]: 61.5 °C
- conformation of p6f / p4Y side chains and H155 (H-2D^b): the side chain of p6f takes a different conformation in H-2D^b/F6f compared to H-2D^b/gp33
- distances H-2D^b W73:NH–p6:CO and H-2D^b Y156:OH–p6:NH (H-2D^b): both distances increase in comparison to the corresponding structures with the L-amino acid
- pMHC complex formation (H-2D^b): does not compromise complex formation
- binding by TCR P14 (in words) (TCR P14): reduced P14 affinity; also recorded: significantly reduced binding by the H-2D^b/gp33-specific TCR P14
